Assay results from BindingDB's records for doi:10.1101/2020.12.16.422677 (Fraunhofer Institute for Translational Medicine and …, 2020).

Molecular target: Replicase polyprotein 1ab (Severe acute respiratory syndrome coronavirus 2, UniProt P0DTD1)
Assay: Hit profiling assay with DTT

Row | SMILES | IC50
1 | CN1CCN(C(c2ccc(C(F)(F)F)cc2)c2ccc3cccnc3c2O)CC1 (configuration not stated) | 1340 nM
2 | Cn1sc(=O)n(Cc2ccccc2)c1=O [4-Benzyl-2-methyl-1,2,4-thiadiazolidine-3,5-dione] | 140 nM
3 | O=C1C=Cc2cc(Br)ccc2C1=O [Bonaphthone] | 90 nM
4 | CCOC(=O)Cc1ccc(-c2ccccc2)cc1 [Felbinac ethyl] | 80 nM
5 | Cc1c(-c2cnccn2)ssc1=S [OLTIPRAZ] | 110 nM
6 | N#CSc1cc(SC#N)c(N)nc1N [PR-619] | 4410 nM
7 | COC(=O)CC[C@H](NC(=O)[C@H](CC(=O)OC)NC(=O)OCc1ccccc1)C(=O)N[C@H](C(=O)N[C@@H](CC(=O)OC)C(=O)CF)C(C)C [US9345789, Z-DEVD-FMK] | 10 nM
